According to patent publication US11976057B2, “MrgX2 antagonists” (GlaxoSmithKline Intellectual Property Development Limited, priority 2020, dated 2024):

target: T1, human MRGPRX2 (Homo sapiens, UniProt Q96LB1); assay: Ca2+ mobilization assay (FLIPR TETRA): inhibition of Cortistatin-14 mediated MRGPRX2 activation
T1 sequence (Q96LB1 1-330): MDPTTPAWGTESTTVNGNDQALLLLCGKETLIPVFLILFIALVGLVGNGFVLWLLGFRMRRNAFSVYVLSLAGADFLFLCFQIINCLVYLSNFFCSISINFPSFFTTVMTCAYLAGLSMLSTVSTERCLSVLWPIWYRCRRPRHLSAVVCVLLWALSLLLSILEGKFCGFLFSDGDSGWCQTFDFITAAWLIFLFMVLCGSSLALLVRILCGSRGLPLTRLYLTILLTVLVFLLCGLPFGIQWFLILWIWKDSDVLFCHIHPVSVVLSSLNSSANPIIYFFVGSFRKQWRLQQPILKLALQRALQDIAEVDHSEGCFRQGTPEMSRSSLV

Row | Compound | IC50
1 | C[C@@H](C(=O)Nc1ccc(F)cn1)N1CCC(F)(F)[C@@H](c2cn(CC(F)(F)F)c(=O)cn2)C1 (single isomer, unassigned) [Example 103] | ≤ 10 nM
2 | C[C@@H]1C[C@@H](c2ccc(=O)[nH]c2)CN([C@@H](C)C(=O)Nc2ccc(Cl)cn2)C1 [Example 173] | 3160 to 31600 nM
3 | C[C@@H](C(=O)Nc1ccc(Oc2ncc(F)cc2F)cn1)[C@H]1CCC[C@@H](c2cc[n+]([O-])cc2)C1 [Example 290, 4-((1R,3S)-3-((R)-1-((5-((3,5-difluoropyridin-2-yl)oxy)pyridin-2-yl)amino)-1-oxopropan-2-yl)cyclohexyl)pyridine 1-oxide] | 10 to 100 nM
4 | C[C@@H](C(=O)Nc1cnc(Oc2cc(F)c(F)cc2F)cn1)N1CCC(F)(F)[C@@H](c2cc[n+]([O-])cc2)C1 [Example 120, 4-((S)-4,4-difluoro-1-((S)-1-oxo-1-((5-(2,4,5-trifluorophenoxy)pyrazin-2-yl)amino)propan-2-yl)piperidin-3-yl)pyridine 1-oxide] | ≤ 10 nM
5 | C[C@@H](C(=O)Nc1ccc(OCC2CC2)cn1)N1CCC[C@@](O)(c2ccc(=O)[nH]c2)C1 (single isomer, unassigned) [Example 171] | 3160 to 31600 nM
6 | C[C@@H](C(=O)Nc1ccc(OC2CCCC2)nn1)N1CCC(F)(F)[C@@H](c2ccc(=O)[nH]c2)C1 [Example 101, (S)-N-(6-(cyclopentyloxy)pyridazin-3-yl)-2-((S)-4,4-difluoro-3-(6-oxo-1,6-dihydropyridin-3-yl)piperidin-1-yl)propanamide] | 10 to 100 nM
7 | CC(C(=O)Nc1ccc(Cc2nccs2)cn1)N1CCC(F)(F)[C@@H](c2ccc(=O)[nH]c2)C1 (stereo partly drawn) [Example 52, 2-((S)-4,4-difluoro-3-(6-oxo-1,6-dihydropyridin-3-yl)piperidin-1-yl)-N-(5-(thiazol-2-ylmethyl)pyridin-2-yl)propanamide] | 100 to 3160 nM
8 | CC(C(=O)Nc1ccc(F)cn1)N1CCC(F)(F)C(c2ccc(=O)n(Cc3ncco3)c2)C1 (centres unmarked) [Example 198, 2-(4,4-difluoro-3-(1-(oxazol-2-ylmethyl)-6-oxo-1,6-dihydropyridin-3-yl)piperidin-1-yl)-N-(5-fluoropyridin-2-yl)propanamide] | 10 to 100 nM
9 | COc1ccc(NC(=O)C(C)N2CCC(F)(F)[C@@H](c3ccc(=O)[nH]c3)C2)nn1 (stereo partly drawn) [Example 43, 2-((S)-4,4-difluoro-3-(6-oxo-1,6-dihydropyridin-3-yl)piperidin-1-yl)-N-(6-methoxy-pyridazin-3-yl)propanamide] | 3160 to 31600 nM
10 | C[C@@H](C(=O)Nc1ccc(Oc2ccc(F)cc2F)cn1)N1CCC(F)(F)[C@@H](c2c[nH]c(=O)c([C@H](N)C(F)(F)F)c2)C1 (single isomer, unassigned) [Example 235] | ≤ 10 nM
11 | C[C@@H](C(=O)Nc1ccc(Oc2ccc(F)cc2CO)cn1)N1CCC(F)(F)[C@@H](c2cc[n+]([O-])cc2)C1 [Example 273, 4-((S)-4,4-difluoro-1-((S)-1-((5-(4-fluoro-2-(hydroxymethyl)phenoxy)pyridin-2-yl)amino)-1-oxopropan-2-yl)piperidin-3-yl)pyridine 1-oxide] | 10 to 100 nM
12 | CC(C(=O)Nc1ccc(CC2CCCCC2)cn1)N1CCC(F)(F)[C@@H](c2ccc(=O)[nH]c2)C1 (stereo partly drawn) [Example 27, N-(5-(cyclohexyl-methyl)pyridin-2-yl)-2-((S)-4,4-difluoro-3-(6-oxo-1,6-dihydropyridin-3-yl)piperidin-1-yl)propanamide] | 100 to 3160 nM
13 | C[C@@H](C(=O)Nc1ccc(OCC2CC2)nn1)N1CCC(F)(F)C(c2c[nH]c(=O)c(C#N)c2)C1 (stereo partly drawn) [Example 223, (2S)-2-(3-(5-cyano-6-oxo-1,6-dihydropyridin-3-yl)-4,4-difluoropiperidin-1-yl)-N-(6-(cyclopropylmethoxy)pyridazin-3-yl)propanamide] | 10 to 100 nM
14 | C[C@@H](C(=O)Nc1ccc(F)cn1)N1CCC(F)(F)[C@@H](c2ccc(=O)n(Cc3ccccc3)c2)C1 [Example 195] | ≤ 10 nM

Continued, values first:

Row | IC50 | Compound
15 | 100 to 3160 nM | Cc1cccc(-c2ccc(NC(=O)[C@H](C)N3CCC(F)(F)[C@@H](c4ccc(=O)[nH]c4)C3)nc2)n1 [Example 11, (S)-2-((S)-4,4-difluoro-3-(6-oxo-1,6-dihydropyridin-3-yl)piperidin-1-yl)-N-(6-methyl-[2,3′-bipyridin]-6′-yl)propanamide]
16 | 100 to 3160 nM | C[C@@H](C(=O)Nc1ccc(Cl)cn1)N1CCC(F)(F)[C@@H](c2ccc(=O)[nH]n2)C1 [Example 149, (S)-N-(5-chloropyridin-2-yl)-2-((R)-4,4-difluoro-3-(6-oxo-1,6-dihydropyridazin-3-yl)piperidin-1-yl)propanamide]
17 | 10 to 100 nM | C[C@@H](C(=O)Nc1ccc(Oc2ncc(F)cc2F)cn1)N1CCC(F)(F)[C@@H](c2cc[n+]([O-])cc2)C1 [Example 116]
18 | 100 to 3160 nM | CC(C(=O)Nc1ccc(-c2cccs2)cn1)N1CCC(F)(F)[C@@H](c2ccc(=O)[nH]c2)C1 (stereo partly drawn) [Example 50, 2-((S)-4,4-difluoro-3-(6-oxo-1,6-dihydropyridin-3-yl)piperidin-1-yl)-N-(5-(thiophen-2-yl)pyridin-2-yl)propanamide]
19 | 100 to 3160 nM | C[C@@H](C(=O)Nc1ccc(F)cn1)N1CCC(F)(F)[C@@H](c2cc[n+]([O-])cc2)C1 [Example 113, 4-((S)-4,4-difluoro-1-((S)-1-((5-fluoropyridin-2-yl)amino)-1-oxopropan-2-yl)piperidin-3-yl)pyridine 1-oxide]
20 | 10 to 100 nM | C[C@@H](C(=O)Nc1ccc(OCC2CC2)nn1)N1CCC(F)(F)[C@@H](c2ccc(=O)[nH]c2)C1 [Example 8, N-(6-(cyclopropylmeth-oxy)pyridazin-3-yl)-2-((S)-4,4-difluoro-3-(6-oxo-1,6-dihydropyridin-3-yl)piperidin-1-yl)propanamide]
21 | 100 to 3160 nM | CC(C(=O)Nc1ccc(OCC2CC2)cn1)N1CC(c2ccc(=O)[nH]c2)C(F)(F)C1 (centres unmarked) [Example 164, N-(5-(cyclopropylmethoxy)pyridin-2-yl)-2-(3,3-difluoro-4-(6-oxo-1,6-dihydropyridin-3-yl)pyrrolidin-1-yl)propanamide]
22 | ≤ 10 nM | CC(C(=O)Nc1ccc(Oc2ccccc2)cn1)N1CCC(F)(F)C(c2cc[n+]([O-])cc2)C1 (centres unmarked) [Example 110]
23 | 100 to 3160 nM | C[C@@H](C(=O)Nc1ccc(C(=O)OC2CCCC2)cn1)N1CCC(F)(F)[C@@H](c2ccc(=O)[nH]c2)C1 [Example 46, cyclopentyl 6-((S)-2-((S)-4,4-difluoro-3-(6-oxo-1,6-dihydropyridin-3-yl)piperidin-1-yl)propanamido) nicotinate]
24 | 10 to 100 nM | C[C@@H](C(=O)Nc1ccc(Oc2ccc(F)cn2)cn1)[C@H]1CCC[C@@H](c2cc[n+]([O-])cc2)C1 [Example 287, 4-((1R,3S)-3-((R)-1-((5-((5-fluoropyridin-2-yl)oxy)pyridin-2-yl)amino)-1-oxopropan-2-yl)cyclohexyl)pyridine 1-oxide]
25 | 100 to 3160 nM | C[C@@H](C(=O)Nc1ccc(OCC2CC2)nn1)N1CCC(F)(F)C(c2ccncc2)C1 (stereo partly drawn) [Example 224, (2S)—N-(6-(cyclopropylmethoxy)pyridazin-3-yl)-2-(4,4-difluoro-3-(pyridin-4-yl)piperidin-1-yl)propanamide]
26 | 100 to 3160 nM | C[C@@H](C(=O)Nc1ccc(F)cn1)N1CCC(F)(F)[C@@H](c2c[nH]c(=O)c(CO)c2)C1 [Example 153, (S)-2-((S)-4,4-difluoro-3-(5-(hydroxymethyl)-6-oxo-1,6-dihydropyridin-3-yl)piperidin-1-yl)-N-(5-fluoropyridin-2-yl)propanamide]
27 | ≤ 10 nM | C[C@@H](C(=O)Nc1cnc(Oc2c(F)cccc2F)cn1)N1CCC(F)(F)[C@@H](c2cc[n+]([O-])cc2)C1 [Example 121, 4-((S)-1-((S)-1-((5-(2,6-difluorophenoxy)pyrazin-2-yl)amino)-1-oxopropan-2-yl)-4,4-difluoropiperidin-3-yl)pyridine 1-oxide]
28 | ≤ 10 nM | C[C@@H](C(=O)Nc1ccc(Oc2ccc(F)cc2F)cn1)N1CCC(F)(F)C(c2ccnc(C(N)=O)c2)C1 (mixture of isomers) [Example 261, 4-(1-((S)-1-((5-(2,4-difluorophenoxy)pyridin-2-yl)amino)-1-oxopropan-2-yl)-4,4-difluoropiperidin-3-yl)picolinamide]
29 | ≤ 10 nM | C[C@@H](C(=O)Nc1ccc(OCC2CC2)cn1)[C@H]1CCC(F)(F)[C@@H](c2ccc(=O)[nH]c2)C1 (single isomer, unassigned) [Example 275]
30 | 10 to 100 nM | Cc1cc([C@@H]2CN([C@H](C)C(=O)Nc3ccc(Oc4ccc(F)cc4)cn3)CCC2(F)F)cc[n+]1[O-] (racemic) [Example 218, 4-((R)-4,4-difluoro-1-((R)-1-((5-(4-fluorophenoxy)pyridin-2-yl)amino)-1-oxopropan-2-yl)piperidin-3-yl)-2-methylpyridine 1-oxide and 4-((S)-4,4-difluoro-1-((S)-1-((5-(4-fluorophenoxy)pyridin-2-yl)amino)-1-oxopropan-2-yl)piperidin-3-yl)-2-methylpyridine 1-oxide]
31 | ≤ 10 nM | CC(C(=O)Nc1cnc(Oc2ccc(F)cc2F)cn1)N1CCC(F)(F)C(c2cc[n+]([O-])c(C(N)=O)c2)C1 (centres unmarked) [Example 260, 2-carbamoyl-4-(1-(1-((5-(2,4-difluorophenoxy)pyrazin-2-yl)amino)-1-oxopropan-2-yl)-4,4-difluoropiperidin-3-yl)pyridine 1-oxide]
32 | ≤ 10 nM | C[C@@H](C(=O)Nc1cnc(Oc2ccc(F)cc2F)cn1)N1CCC(F)(F)[C@@H](c2ccc(=O)[nH]c2)C1 [Example 85, (S)-2-((S)-4,4-difluoro-3-(6-oxo-1,6-dihydropyridin-3-yl)piperidin-1-yl)-N-(5-(2,4-difluorophenoxy)pyrazin-2-yl)propanamide]
